{
  "source": "patent US20260000656A1",
  "about": "“ANTIFUNGAL AGENTS WITH ENHANCED ACTIVITY IN ACIDIC PH” (Scynexis, Inc., priority 2017, published 2026)",
  "key": {"[1]": {"tested_on": "vulvovaginal candidiasis (Candida spp.)", "assay_type": "in vivo, human", "conditions": "for rate of mycological eradication: SCY-078 combined arms / fluconazole arm; for Therapeutic cure (clinical cure and mycological eradication) / mycological eradication / clinical cure: ITT population; for Therapeutic cure (clinical cure and mycological eradication): Day 24 Test-of-Cure visit; for Therapeutic cure (clinical cure and mycological eradication) / mycological eradication: combined SCY-078 arms (n = 64) / fluconazole 150 mg (n = 32); for mycological eradication / clinical cure: Test-of-Cure visit (Day 24); for clinical cure: combined SCY-078 arms (n = 64, 1250 mg then 750 mg QD for 2 or 4 days) / fluconazole 150 mg single dose (n = 32)", "description": "As a first step of the feasibility evaluation, a proof-of-concept exploratory trial in 96 patients with moderate to severe acute VVC was conducted. Subjects received SCY-078 tablets orally, administered at a dose of 1250 mg on day 1, followed by 750 mg once a day for 2 or 4 days. A comparator group of patients receiving oral fluconazole at the approved dose (150 mg, single dose) was also included.\nThis study was a proof-of-concept study conducted to evaluate the safety and efficacy of two dosing regimens of oral SCY-078 (administered as the phosphate salt) in subjects presenting with moderate to severe VVC.\nKey criteria for inclusion included: • 1. Subjects with moderate to severe VVC, confirmed by positive potassium hydroxide (KOH) test from a vaginal secretion sample • 2. Three vaginitis episodes in the past year that were either confirmed to be caused by Candida spp. or that responded to antifungal therapy\nSubjects were randomized in a 1:1:1 ratio to one of the three treatment arms: Oral SCY-078 loading dose of 1250 mg SCY-078, followed by 750 mg SCY-078 QD for 2 days or for 4 days, or Oral Fluconazole 150 mg for 1 day.\nSubjects were evaluated on Day 24 (Test-of-Cure visit), Day 60, Day 90, and 120 days (end of study).\nThe analyses included clinical cure (all signs and symptoms present at baseline improved by at least two points (e.g., from moderate to absent or from severe to mild); after the study started, the FDA proposed that clinical cure is achieved if all signs and symptoms present at baseline are absent), mycological eradication (a negative culture for the baseline yeast pathogen), and therapeutic cure (both clinical cure and mycological eradication). Clinical cure has been proposed by the FDA as the primary endpoint for assessment of efficacy in VVC.\nNinety-six subjects were enrolled (intent-to-treat (ITT) population), and 70 subjects had cultured-confirmed Candida spp. infection (per protocol (PP) population)."}, "[2]": {"tested_on": "acute VVC (Candida spp. vaginal infection)", "assay": "clinical", "assay_type": "in vivo, human", "conditions": "for mycological eradication / percentage of patients showing an S&S score of 0 or 1 / mean S&S score / percentage of patients with 0-or-1 S&S score / percentage of patients with clinical cure: SCY-078 600 mg dose arm / fluconazole arm; for mean S&S score: scale 0 to 18; for clinical cure / clinical cure, number of patients: Day 10 Test-of-Cure, mITT, SCY-078 600 mg (300 mg BID 1 day, n=27) / fluconazole 150 mg (n=24); for percentage of patients with 0-or-1 S&S score / percentage of patients with clinical cure: Day 25 Follow-Up visit; for patients who received rescue antifungal medication: through Day 25 Follow-Up, SCY-078 600 mg (n=27) / fluconazole (n=24)", "description": "A Phase 2 study was conducted to evaluate the safety, efficacy, tolerability, and pharmacokinetics of five dose regimens of oral SCY-078 (administered as the citrate salt) compared to oral fluconazole in adult, female patients with moderate-to-severe acute VVC (defined as having a signs and symptoms (S&S) score of 7 or greater). A total of 186 intent-to-treat (ITT) patients were randomized into six different treatment arms as follows: five different dosing regimens of oral SCY-078 and one oral fluconazole treatment arm. The modified intent-to-treat (mITT) population was used for efficacy analysis and included 153 patients with culture-confirmed Candida spp. vaginal infection (positive microscopic examination of vaginal secretions showing yeast, vaginal pH≤4.5) at baseline. The doses of SCY-078 tested ranged from 600 mg to 1800 mg total dose administered over the duration of treatment, and the durations of treatment were 1 or 3 days:\nThe primary efficacy endpoint was clinical cure, which according to current FDA guidance is defined as complete resolution (score=0) of all signs and symptoms at the Day 10 Test-of-Cure visit without the need of additional antifungal therapy. Secondary endpoints included mycological eradication (negative culture) and a composite endpoint including both clinical cure and mycological eradication. Response was also evaluated based on the percent of patients achieving a noticeable improvement in their signs and symptoms, either by achieving an S&S score of 0 or 1 or an absolute change (reduction) in mean composite S&S score from baseline. An S&S score is based on a patient's reported symptoms (burning, itching, and irritation) and investigator-assessed signs (swelling, redness, and excoriations); each sign and symptom can be absent, mild, moderate, or severe, with a corresponding score from 0 to 3; the total composite scale is 0 to 18 points. Response was further evaluated by assessing the number of patients who received rescue antifungal therapy. Patients were assessed at the Day 10 Test-of-Cure visit and also at a Day 25 Follow-Up visit. The study was not designed to achieve statistically significant differences in any of the evaluated endpoints."}, "VVC": {"tested_on": "VVC", "conditions": "oral fluconazole, share of VVC cases, Diflucan label (May 2011); cited from earlier work"}, "[3]": {"conditions": "Day 24, per protocol population"}, "[4]": {"conditions": "Day 24, per protocol population, SCY-078 3-Days arm (n = 24)"}, "[5]": {"conditions": "Day 24, per protocol population, SCY-078 5-Days arm (n = 26)"}, "[6]": {"conditions": "Day 24, per protocol population, SCY-078 Combined (n = 50) / Fluconazole (n = 20)"}, "[7]": {"conditions": "Month 4, SCY-078 3-Days arm (n = 24)"}, "[8]": {"conditions": "Month 4, SCY-078 5-Days arm (n = 26)"}, "[9]": {"conditions": "Month 4, SCY-078 Combined (n = 50) / Fluconazole (n = 20)"}},
  "note": "Read-outs that look alike come from different tables or passages of the source.",
  "data": [
    {"smiles": "CC(C)[C@@H](C)[C@@]1(C)CC[C@]2(C)[C@H]3CC[C@@H]4[C@@]5(COC[C@]4(C)[C@@H](OC[C@](C)(N)C(C)(C)C)[C@H](n4ncnc4-c4ccncc4)C5)C3=CC[C@@]2(C)[C@@H]1C(=O)O", "note": "[SCY-078]", "values": [
      {"measurement": "% Δ SCY-078 (combined) vs. Fluconazole, Clinical Cure", "setting": "[1]; [3]", "value": 11, "unit": "%"},
      {"measurement": "% Δ SCY-078 (combined) vs. Fluconazole, Clinical Cure (Updated FDA Definition)", "setting": "[1]; [3]", "value": 15, "unit": "%"},
      {"measurement": "Clinical Cure (Updated FDA Definition), rate", "setting": "[1]; [4]", "value": 70.8, "unit": "%"},
      {"measurement": "Clinical Cure, rate", "setting": "[1]; [4]", "value": 79.2, "unit": "%"},
      {"measurement": "Clinical Cure (Updated FDA Definition), rate", "setting": "[1]; [5]", "value": 69.2, "unit": "%"},
      {"measurement": "Clinical Cure, rate", "setting": "[1]; [5]", "value": 73.1, "unit": "%"},
      {"measurement": "Clinical Cure (Updated FDA Definition), rate", "setting": "[1]; [6]", "value": 70, "unit": "%"},
      {"measurement": "Clinical Cure, rate", "setting": "[1]; [6]", "value": 76, "unit": "%"},
      {"measurement": "rate of mycological eradication", "setting": "[1]; Day 24", "value": 70, "unit": "%"},
      {"measurement": "Therapeutic cure (clinical cure and mycological eradication)", "setting": "[1]", "value": 56.3, "unit": "%"},
      {"measurement": "mycological eradication", "setting": "[1]", "value": 70.3, "unit": "%"},
      {"measurement": "clinical cure", "setting": "[1]", "value": 78.1, "unit": "%"},
      {"measurement": "% Δ SCY-078 (combined) vs. Fluconazole, Clinical Cure", "setting": "[1]; Month 4", "value": 23, "unit": "%"},
      {"measurement": "% Δ SCY-078 (combined) vs. Fluconazole, Recurrences Requiring Antifungal Therapy", "setting": "[1]; Month 4", "value": "−11", "unit": "%"},
      {"measurement": "% Δ SCY-078 (combined) vs. Fluconazole, “0” Signs and Symptoms", "setting": "[1]; Month 4", "value": 15, "unit": "%"},
      {"measurement": "Clinical Cure, rate", "setting": "[1]; [7]", "value": 87.5, "unit": "%"},
      {"measurement": "Recurrences Requiring Antifungal Therapy, rate", "setting": "[1]; [7]", "value": 4.2, "unit": "%"},
      {"measurement": "“0” Signs and Symptoms, rate", "setting": "[1]; [7]", "value": 79.1, "unit": "%"},
      {"measurement": "Clinical Cure, rate", "setting": "[1]; [8]", "value": 88.46, "unit": "%"},
      {"measurement": "Recurrences Requiring Antifungal Therapy, rate", "setting": "[1]; [8]", "value": 3.8, "unit": "%"},
      {"measurement": "“0” Signs and Symptoms, rate", "setting": "[1]; [8]", "value": 80.7, "unit": "%"},
      {"measurement": "Clinical Cure, rate", "setting": "[1]; [9]", "value": 88, "unit": "%"},
      {"measurement": "Recurrences Requiring Antifungal Therapy, rate", "setting": "[1]; [9]", "value": 4, "unit": "%"},
      {"measurement": "“0” Signs and Symptoms, rate", "setting": "[1]; [9]", "value": 80, "unit": "%"},
      {"measurement": "rate of mycological eradication", "setting": "[1]; Month 4", "value": 74, "unit": "%"},
      {"measurement": "GI adverse events (e.g., nausea, diarrhea)", "setting": "[1]; in vivo", "value": "higher rate of GI adverse events"},
      {"measurement": "mycological eradication", "setting": "[2]; Day 10, mITT", "value": 63, "unit": "%"},
      {"measurement": "percentage of patients showing an S&S score of 0 or 1", "setting": "[2]; Day 10, mITT", "value": 70, "unit": "%"},
      {"measurement": "mean S&S score", "setting": "[2]; Day 10, mITT", "value": 1.0},
      {"measurement": "clinical cure", "setting": "[2]", "value": 52, "unit": "%"},
      {"measurement": "clinical cure, number of patients", "setting": "[2]", "value": 14},
      {"measurement": "mycological eradication", "setting": "[2]; Day 25", "value": 48, "unit": "%"},
      {"measurement": "mean S&S score", "setting": "[2]; Day 25", "value": 0.4},
      {"measurement": "percentage of patients with 0-or-1 S&S score", "setting": "[2]", "value": 81, "unit": "%"},
      {"measurement": "percentage of patients with clinical cure", "setting": "[2]", "value": 70, "unit": "%"},
      {"measurement": "patients who received rescue antifungal medication", "setting": "[2]", "value": 4, "unit": "%"}
    ]},
    {"smiles": "OC(Cn1cncn1)(Cn1cncn1)c1ccc(F)cc1F", "note": "[Fluconazole, reference compound]", "values": [
      {"measurement": "Clinical Cure (Updated FDA Definition), rate", "setting": "[1]; [6]", "value": 55, "unit": "%"},
      {"measurement": "Clinical Cure, rate", "setting": "[1]; [6]", "value": 65, "unit": "%"},
      {"measurement": "rate of mycological eradication", "setting": "[1]; Day 24", "value": 65, "unit": "%"},
      {"measurement": "Therapeutic cure (clinical cure and mycological eradication)", "setting": "[1]", "value": 56.3, "unit": "%"},
      {"measurement": "Therapeutic cure (clinical cure and mycological eradication)", "setting": "[1]; listed as fluconazole", "value": 56.3, "unit": "%"},
      {"measurement": "mycological eradication", "setting": "[1]", "value": 68.8, "unit": "%"},
      {"measurement": "clinical cure", "setting": "[1]", "value": 65.6, "unit": "%"},
      {"measurement": "Clinical Cure, rate", "setting": "[1]; [9]", "value": 65, "unit": "%"},
      {"measurement": "Recurrences Requiring Antifungal Therapy, rate", "setting": "[1]; [9]", "value": 15, "unit": "%"},
      {"measurement": "“0” Signs and Symptoms, rate", "setting": "[1]; [9]", "value": 65, "unit": "%"},
      {"measurement": "rate of mycological eradication", "setting": "[1]; Month 4", "value": 60, "unit": "%"},
      {"measurement": "therapeutic cure (complete resolution of signs and symptoms, negative KOH examination and negative culture)", "setting": "VVC", "value": "approximately half"},
      {"measurement": "mycological eradication", "setting": "[2]; Day 10, mITT", "value": 63, "unit": "%"},
      {"measurement": "percentage of patients showing an S&S score of 0 or 1", "setting": "[2]; Day 10, mITT", "value": 71, "unit": "%"},
      {"measurement": "mean S&S score", "setting": "[2]; Day 10, mITT", "value": 1.8},
      {"measurement": "clinical cure", "setting": "[2]", "value": 58, "unit": "%"},
      {"measurement": "clinical cure, number of patients", "setting": "[2]", "value": 14},
      {"measurement": "mycological eradication", "setting": "[2]; Day 25", "value": 38, "unit": "%"},
      {"measurement": "mean S&S score", "setting": "[2]; Day 25", "value": 2.6},
      {"measurement": "percentage of patients with 0-or-1 S&S score", "setting": "[2]", "value": 58, "unit": "%"},
      {"measurement": "percentage of patients with clinical cure", "setting": "[2]", "value": 50, "unit": "%"},
      {"measurement": "patients who received rescue antifungal medication", "setting": "[2]", "value": 29, "unit": "%"}
    ]}
  ]
}
